Test results as given in BindingDB's records for doi:10.3109/14756366.2011.555944 (Aristotle University of Thessaloniki, 2011).

Molecular target: T1, Seed linoleate 13S-lipoxygenase-1 (Glycine max, UniProt P08170)
T1 sequence (P08170 whole entry): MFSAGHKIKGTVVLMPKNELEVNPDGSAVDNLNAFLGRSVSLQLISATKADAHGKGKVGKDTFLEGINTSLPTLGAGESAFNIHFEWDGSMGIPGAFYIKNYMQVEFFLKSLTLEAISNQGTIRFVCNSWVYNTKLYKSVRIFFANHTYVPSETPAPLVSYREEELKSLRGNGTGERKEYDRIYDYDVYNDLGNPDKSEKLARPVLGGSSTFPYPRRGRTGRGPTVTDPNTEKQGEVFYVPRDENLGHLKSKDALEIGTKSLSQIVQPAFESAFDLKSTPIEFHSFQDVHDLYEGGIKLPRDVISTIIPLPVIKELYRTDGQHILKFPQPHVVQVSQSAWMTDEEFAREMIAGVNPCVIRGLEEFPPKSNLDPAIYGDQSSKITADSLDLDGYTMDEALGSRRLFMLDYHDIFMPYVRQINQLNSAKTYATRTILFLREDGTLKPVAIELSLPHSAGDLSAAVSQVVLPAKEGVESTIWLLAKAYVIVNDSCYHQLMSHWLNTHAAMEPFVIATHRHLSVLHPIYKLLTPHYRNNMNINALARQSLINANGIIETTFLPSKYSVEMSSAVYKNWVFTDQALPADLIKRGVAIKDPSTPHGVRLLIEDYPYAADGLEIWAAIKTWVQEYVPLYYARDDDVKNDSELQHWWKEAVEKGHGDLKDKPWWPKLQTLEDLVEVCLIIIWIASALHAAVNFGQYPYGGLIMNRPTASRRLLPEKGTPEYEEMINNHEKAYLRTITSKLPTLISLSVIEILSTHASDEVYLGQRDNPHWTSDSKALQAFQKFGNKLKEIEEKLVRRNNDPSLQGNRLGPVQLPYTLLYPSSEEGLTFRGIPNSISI
Assay: In Vitro LOX Inhibition Assay
Conditions: 25 °C

## O=c1ccc2ccc3c(c2o1)CC=CCO3 [8,11-Dihydro-2H-oxepino[2,3-h]chromen-2-one (7a)]
  IC50: 310 µM

## Cc1cc(=O)oc2c3c(ccc12)OCC=CC3 [4-Methyl-8,11-dihydro-2H-oxepino[2,3-h]chromen-2-one (7b)]
  IC50: 180 µM
